Reference: US20140206681A1, “BTK INHIBITORS” (priority 2013, published 2014)
pIC50: −log10 of the molar value.

Tests used:
[1] = molecular target: T1, BTK enzyme (recombinant full-length BTK, hBTK) (Homo sapiens, UniProt Q06187); test: BTK enzyme activity assay, LANCE TR-FRET; format: biochemical; details: 50 pM hBTK, 2 μM biotin-A5-peptide, 25 μM ATP; 60 min compound & enzyme incubation; read-out: IC50 BTK activity value
T1 construct: recombinant protein from baculovirus-transfected Sf9 cells: full-length BTK, 6HIS-tag cleaved; 6HIS (cleaved yes); made in house; host or cells: baculovirus-transfected Sf9 cells

HeLa cells = test: [3H]Adenosine uptake functional cellular assay; format: cell-based; details: Homo sapiens, HeLa, accumulation of [3H]adenosine into HeLa cells; compound range 10 μM to […]; read-out: Adenosine uptake inhibition IC50
Summary of the method: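 Inhibition of adenosine uptake was measured in HeLa cells (ATCC CCL-2) by following accumulation of tritiated adenosine. Cells were kept overnight at 37° C. with 5% (v/v) CO2, then switched to 40 μL HBSS plus 5% (v/v) FBS. 20 μL of 500 nM [3H]adenosine was added, and uptake was counted on a Topcount NXT reader.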

T1 sequence (Q06187 whole entry): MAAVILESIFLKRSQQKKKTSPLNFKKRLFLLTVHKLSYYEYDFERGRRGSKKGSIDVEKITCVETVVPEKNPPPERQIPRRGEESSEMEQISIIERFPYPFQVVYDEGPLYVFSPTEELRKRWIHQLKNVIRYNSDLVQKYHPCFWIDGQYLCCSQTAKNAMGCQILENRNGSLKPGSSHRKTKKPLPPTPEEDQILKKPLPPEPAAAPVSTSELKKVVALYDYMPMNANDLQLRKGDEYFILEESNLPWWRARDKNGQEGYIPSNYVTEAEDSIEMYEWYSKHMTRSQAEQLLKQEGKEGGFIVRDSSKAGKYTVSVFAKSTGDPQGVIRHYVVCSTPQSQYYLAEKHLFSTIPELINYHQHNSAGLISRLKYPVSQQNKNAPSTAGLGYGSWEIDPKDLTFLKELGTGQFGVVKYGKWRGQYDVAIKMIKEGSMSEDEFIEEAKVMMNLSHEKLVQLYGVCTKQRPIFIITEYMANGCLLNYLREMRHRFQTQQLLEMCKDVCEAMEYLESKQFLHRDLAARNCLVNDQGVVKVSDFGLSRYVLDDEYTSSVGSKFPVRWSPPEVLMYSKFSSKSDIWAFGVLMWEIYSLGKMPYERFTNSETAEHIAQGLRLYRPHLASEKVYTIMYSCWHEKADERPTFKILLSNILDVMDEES

Row | Structure (SMILES) | pIC50 [1] | pIC50 (HeLa cells)
1 | Cc1cc(C(F)(F)F)cc(NC(=O)c2ccc(-c3nc([C@@H]4CC[C@H]5CCC(=O)N5C4)n4ccnc(N)c34)cc2)n1 [Example 120, 4-{8-amino-3-[(6R,8aS)-3-oxooctahydroindolizin-6-yl]imidazo[1,5-a]pyrazin-1-yl}-N-[6-methyl-4-(trifluoromethyl)pyridin-2-yl]benzamide] | 8.32 | 6.93
2 | N#Cc1cc(C(=O)Nc2cc(C(F)(F)F)ccn2)ccc1-c1nc([C@@H]2CC[C@H]3CCC(=O)N3C2)n2ccnc(N)c12 [Example 123, 4-{8-amino-3-[(6R,8aS)-3-oxooctahydroindolizin-6-yl]imidazo[1,5-a]pyrazin-1-yl}-3-cyano-N-[4-(trifluoromethyl)pyridin-2-yl]benzamide] | 8.20 | 6.14
3 | NC(=O)c1cc(C(=O)Nc2cc(C(F)(F)F)ccn2)ccc1-c1nc([C@@H]2CC[C@H]3CCC(=O)N3C2)n2ccnc(N)c12 [Example 124, 4-{8-amino-3-[(6R,8aS)-3-oxooctahydroindolizin-6-yl]imidazo[1,5-a]pyrazin-1-yl}-N~1~-[4-(trifluoromethyl)pyridin-2-yl]benzene-1,3-dicarboxamide] | 6.46 | ≤ 5.00
4 | CC(C)c1cc(C(F)(F)F)cc(NC(=O)c2ccc(-c3nc([C@@H]4CC[C@H]5CCC(=O)N5C4)n4ccnc(N)c34)cc2)n1 [Example 125, 4-{8-amino-3-[(6R,8aS)-3-oxooctahydroindolizin-6-yl]imidazo[1,5-a]pyrazin-1-yl}-N-[6-(1-methylethyl)-4-(trifluoromethyl)pyridin-2-yl]benzamide] | 6.56 | 6.19
5 | Nc1nccn2c([C@@H]3CC[C@H]4CCC(=O)N4C3)nc(-c3ccc(C(=O)Nc4cc(C(F)(F)F)ccn4)cc3C(=O)O)c12 [Example 127, 2-{8-amino-3-[(6R,8aS)-3-oxooctahydroindolizin-6-yl]imidazo[1,5-a]pyrazin-1-yl}-5-{[4-(trifluoromethyl)pyridin-2-yl]carbamoyl}benzoic acid] | 7.08 | 5.29
6 | CCOc1cc(C(=O)Nc2cc(C(F)(F)F)ccn2)ccc1-c1nc([C@@H]2CC[C@H]3CCC(=O)N3C2)n2c(Cl)cnc(N)c12 [Example 128, 4-{8-amino-5-chloro-3-[(6R,8aS)-3-oxooctahydroindolizin-6-yl]imidazo[1,5-a]pyrazin-1-yl}-3-ethoxy-N-[4-(trifluoromethyl)pyridin-2-yl]benzamide] | 9.57 | 5.94
7 | COc1cccc(NC(=O)c2ccc(-c3nc([C@@H]4CC[C@H]5CCC(=O)N5C4)n4ccnc(N)c34)cc2)n1 [Example 129, 4-{8-amino-3-[(6R,8aS)-3-oxooctahydroindolizin-6-yl]imidazo[1,5-a]pyrazin-1-yl}-N-(6-methoxypyridin-2-yl)benzamide] | 7.09 | 7.41
8 | COc1cc(C(=O)Nc2cc(C(F)(F)F)ccn2)c(F)cc1-c1nc([C@@H]2CC[C@H]3CCC(=O)N3C2)n2ccnc(N)c12 [Example 130, 4-{8-amino-3-[(6R,8aS)-3-oxooctahydroindolizin-6-yl]imidazo[1,5-a]pyrazin-1-yl}-2-fluoro-5-methoxy-N-[4-(trifluoromethyl)pyridin-2-yl]benzamide] | 8.60 | 6.14
9 | CCOc1cc(C(=O)Nc2cc(C(F)(F)F)n(C)n2)ccc1-c1nc([C@@H]2CC[C@H]3CCC(=O)N3C2)n2ccnc(N)c12 [Example 131, 4-{8-amino-3-[(6R,8aS)-3-oxooctahydroindolizin-6-yl]imidazo[1,5-a]pyrazin-1-yl}-3-ethoxy-N-[1-methyl-5-(trifluoromethyl)-1H-pyrazol-3-yl]benzamide] | 9.13 | 5.56
10 | COc1cc(C(=O)Nc2cc(C(F)(F)F)ccn2)c(F)cc1-c1nc([C@@H]2CC[C@H]3CCC(=O)N3C2)n2c(Cl)cnc(N)c12 [Example 132, 4-{8-amino-5-chloro-3-[(6R,8aS)-3-oxooctahydroindolizin-6-yl]imidazo[1,5-a]pyrazin-1-yl}-2-fluoro-5-methoxy-N-[4-(trifluoromethyl)pyridin-2-yl]benzamide] | 8.92 | 5.83
